Data set [1] can be described thus: Metabolic stability in porcine liver homogenates. It counts as in vitro ADME. Conditions: pig, porcine liver homogenate (supernatant).
Data set [2] can be described thus: Stability test in human blood plasma. It counts as in vitro ADME. The conditions noted are these: for half-life at 10 μM: human.

Numbered stars: 1 amine (or outer) side, 2 acyl side, 3 side chain; on linkers, the order of the positions; unused ones are H or OH. Side chains are listed from the residue outwards. Peptide text beside a SMILES is read from it. * marks the point of attachment. X1 = CN(C)c1ccc2c(c1)Oc1cc(N(C)C)ccc1C21OC(=O)c2ccc(C(=O)*)cc21; γGlu = O=C(O)[C@H](CCC(=O)[*:2])N[*:1]; Palmitoyl = CCCCCCCCCCCCCCCC(=O)*; Octanoyl = CCCCCCCC(=O)*

For the molecule `CCCCCCCC(=O)N[C@@H](CCC(=O)NCCCC[C@H](NC(=O)[C@H](CC(N)=O)NC(=O)[C@@H](NC(=O)[C@H](Cc1ccc(O)cc1)NC(=O)[C@H](CCCNC(=N)N)NC(=O)[C@H](CCCNC(=N)N)NC(=O)[C@H](CC(C)C)NC(=O)[C@H](CC(=O)O)NC(=O)[C@H](C)NC(=O)[C@H](C)NC(=O)[C@H](Cc1ccc(O)cc1)NC(=O)[C@H](CCC(N)=O)NC(=O)[C@H](C)NC(=O)[C@H](CCSC)NC(=O)[C@H](CCC(N)=O)NC(=O)[C@H](CCC(=O)O)NC(=O)[C@@H]1CCCN1C(=O)[C@@H](NC(=O)[C@H](C)NC(=O)[C@H](CC(N)=O)NC(=O)[C@H](CC(=O)O)NC(=O)CNC(=O)[C@@H]1CCCN1C(=O)[C@H](Cc1ccc(O)cc1)NC(=O)[C@@H](NC(=O)[C@@H]1CCCN1C(=O)[C@H](CCC(=O)O)NC(=O)[C@H](CC(C)C)NC(=O)[C@@H]1CCCN1C(=O)c1ccc2c(c1)C1(OC2=O)c2ccc(N(C)C)cc2Oc2cc(N(C)C)ccc21)C(C)C)[C@@H](C)O)[C@@H](C)CC)C(=O)N[C@@H](CC(C)C)C(=O)N[C@H](C(=O)N[C@@H](CCCNC(=N)N)C(=O)N1CCC[C@H]1C(=O)N[C@@H](CCCNC(=N)N)C(=O)N[C@@H](Cc1ccc(O)cc1)C(N)=O)[C@@H](C)O)C(=O)O` [16b, TAMRA-[K^30(E-Capr)]hPP2–36] (X1-PLEPVYPGDNATPEQMAQYAADLRRYINK([γGlu-Octanoyl])LTRPRY-NH2), the half-life at 10 μM in data set [1] was 14.6 ± 2.8 h; in data set [2] it was 281 ± 26.7 h.

Take `CCCCCCCCCCCCCCCC(=O)N[C@@H](CCC(=O)NCCCC[C@H](NC(=O)[C@H](CC(N)=O)NC(=O)[C@@H](NC(=O)[C@H](Cc1ccc(O)cc1)NC(=O)[C@H](CCCNC(=N)N)NC(=O)[C@H](CCCNC(=N)N)NC(=O)[C@H](CC(C)C)NC(=O)[C@H](CC(=O)O)NC(=O)[C@H](C)NC(=O)[C@H](C)NC(=O)[C@H](Cc1ccc(O)cc1)NC(=O)[C@H](CCC(N)=O)NC(=O)[C@H](C)NC(=O)[C@H](CCSC)NC(=O)[C@H](CCC(N)=O)NC(=O)[C@H](CCC(=O)O)NC(=O)[C@@H]1CCCN1C(=O)[C@@H](NC(=O)[C@H](C)NC(=O)[C@H](CC(N)=O)NC(=O)[C@H](CC(=O)O)NC(=O)CNC(=O)[C@@H]1CCCN1C(=O)[C@H](Cc1ccc(O)cc1)NC(=O)[C@@H](NC(=O)[C@@H]1CCCN1C(=O)[C@H](CCC(=O)O)NC(=O)[C@H](CC(C)C)NC(=O)[C@@H]1CCCN1C(=O)c1ccc2c(c1)C1(OC2=O)c2ccc(N(C)C)cc2Oc2cc(N(C)C)ccc21)C(C)C)[C@@H](C)O)[C@@H](C)CC)C(=O)N[C@@H](CC(C)C)C(=O)N[C@H](C(=O)N[C@@H](CCCNC(=N)N)C(=O)N1CCC[C@H]1C(=O)N[C@@H](CCCNC(=N)N)C(=O)N[C@@H](Cc1ccc(O)cc1)C(N)=O)[C@@H](C)O)C(=O)O` [18b, TAMRA-[K^30(E-Pam)]hPP2–36] (X1-PLEPVYPGDNATPEQMAQYAADLRRYINK([γGlu-Palmitoyl])LTRPRY-NH2): the values for the half-life at 10 μM in data set [1] and in data set [2] were 11.8 ± 0.8 h and 1090 ± 282 h, respectively. The “fold increased half-life in human blood plasma compared to control peptide 14b” value in data set [2] (37°C) is recorded as “more than 10 fold”.

What is called half-life is how long it takes for the measured level to halve. Lower therefore signals rapid decline.

The values above are taken from article PMC5518309 (ChemMedChem, 2014).
